Data as given in patent publication US10336762B2 (priority 2017, dated 2019).
pEC50, pIC50: −log10 of the molar value. Read-outs that look alike come from different tables or passages of the source.

Experiments:
[1] = target: IRAK4 enzyme (Homo sapiens (Human), UniProt Q9NWZ3); experiment: biochemical; type: biochemical; conditions: IRAK4 enzyme, 500 μM ATP
[2] = tested on: TNFα; experiment: cells; type: cell-based, human; conditions: LPS-stimulated human monocytes, read-out: EC50 TNF
[3] = Homo sapiens, Monocyte, TNFα content
[4] = Homo sapiens, Monocyte, TNFα by TR-FRET

Chain of IRAK4 enzyme (Q9NWZ3 whole entry): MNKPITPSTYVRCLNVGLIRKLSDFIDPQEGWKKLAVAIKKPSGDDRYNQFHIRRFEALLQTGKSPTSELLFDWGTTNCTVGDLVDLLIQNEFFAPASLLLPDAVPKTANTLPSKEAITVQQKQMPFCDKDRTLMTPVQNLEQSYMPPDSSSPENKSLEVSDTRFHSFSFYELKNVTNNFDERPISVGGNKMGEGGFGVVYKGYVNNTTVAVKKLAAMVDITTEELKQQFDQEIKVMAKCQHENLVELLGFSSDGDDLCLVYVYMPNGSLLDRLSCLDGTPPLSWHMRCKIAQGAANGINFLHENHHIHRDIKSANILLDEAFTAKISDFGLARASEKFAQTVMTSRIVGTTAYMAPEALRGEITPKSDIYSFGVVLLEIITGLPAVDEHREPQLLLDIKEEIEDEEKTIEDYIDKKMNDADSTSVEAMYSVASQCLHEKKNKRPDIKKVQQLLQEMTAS

Compound | pIC50 ([1]; TR-FRET) | pEC50 [2, 3] | pIC50 ([1]; TR-FRET (HTRF)) | pEC50 [2, 4] | pEC50 ([2]; TNFα content)
CC(C)(O)[C@H](F)CNC(=O)c1cnc(-c2ccc3cc(C#N)cnn23)cc1NC1CCC(C(=O)N2CCOCC2)CC1 (stereo partly drawn) [Example 173, 6-(3-cyanopyrrolo[1,2-b]pyridazin-7-yl)-N-((R)-2-fluoro-3-hydroxy-3-methylbutyl)-4-(((1r,4R)-4-(morpholine-4-carbonyl)cyclohexyl)amino) nicotinamide] | 8.70 | 6.83 | – | – | –
CC(C)Nc1cc(-c2ccc3cc(C#N)cnn23)ncc1C(=O)NC1CC2(CC(O)C2)C1 (centres unmarked) [Example 149, 6-(3-cyanopyrrolo[1,2-b]pyridazin-7-yl)-N-(6-hydroxyspiro[3.3]heptan-2-yl)-4-(isopropylamino) nicotinamide] | 9.00 | 6.83 | – | – | –
CNC(=O)[C@H]1CC[C@@H](Nc2cc(-c3ccc4cc(C#N)cnn34)ncc2C(=O)NC[C@@H](F)C(C)(C)O)CC1 [Example 362, 6-(3-cyanopyrrolo[1,2-b]pyridazin-7-yl)-N-((R)-2-fluoro-3-hydroxy-3-methylbutyl)-4-(((1s,4S)-4-(methylcarbamoyl)cyclo-hexyl)amino)nicotinamide] | 8.05 | 5.84 | – | – | –
CC(=O)NC12CCC(Nc3cc(-c4ccc5cc(C#N)cnn45)ncc3C(=O)NC[C@@H](F)C(C)(C)O)(CC1)C2 [Example 499, (R)-4-((4-acetamidobicyclo[2.2.1]heptan-1-yl)amino)-6-(3-cyanopyrrolo[1,2-b]pyridazin-7-yl)-N-(2-fluoro-3-hydroxy-3-methylbutyl)nicotinamide] | – | 7.70 | 9.00 | – | –
CN1CCOc2cc(Nc3cc(-c4ccc5cc(C#N)cnn45)ncc3C(=O)NC[C@@H](F)C(C)(C)O)ccc21 [Example 854, (R)-6-(3-cyanopyrrolo[1,2-b]pyridazin-7-yl)-N-(2-fluoro-3-hydroxy-3-methylbutyl)-4-((4-methyl-3,4-dihydro-2H-benzo[b] [1,4]oxazin-7-yl)amino)nicotinamide] | 9.00 | – | – | 8.00 | –
COCC(=O)N1CCC(Nc2cc(-c3ccc4cc(C#N)cnn34)ncc2C(=O)NC[C@@H](F)C(C)(C)O)CC1 [Example 328, (R)-6-(3-cyanopyrrolo[1,2-b]pyridazin-7-yl)-N-(2-fluoro-3-hydroxy-3-methylbutyl)-4-((1-(2-methoxyacetyl)piperidin-4-yl)amino)nicotinamide] | 8.22 | 6.52 | – | – | –
CC(C)(O)[C@H](F)CNC(=O)c1cnc(-c2ccc3cc(C#N)cnn23)cc1NC1CC1CO (stereo partly drawn) [Example 321, 6-(3-cyanopyrrolo[1,2-b]pyridazin-7-yl)-N-((R)-2-fluoro-3-hydroxy-3-methylbutyl)-4-((2-(hydroxymethyl)cyclo-propyl)amino)nicotinamide] | > 9.00 | – | – | – | 7.42
CN(C)C(=O)[C@H](F)CNC(=O)c1cnc(-c2ccc3cc(C#N)cnn23)cc1NC12CCC(O)(CC1)CC2 [Example 946, (R)-6-(3-cyanopyrrolo[1,2-b]pyridazin-7-yl)-N-(3-(dimethylamino)-2-fluoro-3-oxopropyl)-4-((4-hydroxybicyclo[2.2.2]octan-1-yl)amino) nicotinamide] | 9.00 | – | – | 6.92 | –
Cc1cc(Nc2cc(-c3ccc4cc(C#N)cnn34)ncc2C(=O)NC[C@@H](F)C(C)(C)O)ncc1C(N)=O [Example 582, (R)-4-((5-carbamoyl-4-methylpyridin-2-yl)amino)-6-(3-cyanopyrrolo[1,2-b]pyridazin-7-yl)-N-(2-fluoro-3-hydroxy-3-methyl-butyl)nicotinamide] | – | 6.41 | 8.52 | – | –
N#Cc1cnn2c(-c3cc(NC45CCC(O)(CC4)CC5)c(C(=O)NCCN4CCCC4=O)cn3)ccc2c1 [Example 809, 6-(3-cyanopyrrolo[1,2-b]pyridazin-7-yl)-4-((4-hydroxybicyclo[2.2.2]octan-1-yl)amino)-N-(2-(2-oxopyrrolidin-1-yl)ethyl)nicotinamide] | 9.00 | – | – | 6.78 | –
